Experimental data published in US20030003139A1 (Schering AG, priority 2000, published 2003).
One block for each molecule: values may come before it.

What was measured:
[1] = in-vitro-diffusion test, Franz-flow cell, transdermal in-vitro skin flow from patches; type: in vitro ADME, mice; details: for transdermal in-vitro skin flow / transdermal in-vitro skin flow, MW (mean value): gestodene patch 1% by weight; for transdermal in-vitro skin flow, MW (mean value): mean of cells
Description: The measurements were made with the following in-vitro-diffusion test. A tempered Franz-flow cell is divided into a donor compartment and an acceptor compartment by a 2 cm^2 piece of excised skin from nude mice, whereby the horny layer faces toward the donor. A 3% or 5% solution of hydroxypropyl-β-cyclodextrin in buffer is pumped with the aid of a pneumatic pump from a tempered storage container through the acceptor compartment and collected with the aid of a fraction collector in glass vials that are exchanged at specific time intervals.
The active ingredient-containing patches are bonded to the donor side.
The content of active ingredients is determined in the individual fractions by means of HPLC/UV or GC/FID.
The transdermal in-vitro skin flow is indicated in ng/cm^2/h: […]

[2] = solubility (crystal-free loadability) of the active ingredient in polyacrylate matrix-TDS according to Example 1; type: physicochemical; details: for content up to which active ingredient is present in dissolved form in matrix-TDS: matrix-TDS according to Example 1
Experimental: Hydroxytrienedione is weighed in a beaker and with 25 g of a 30% solution of Kollidon^(R) VA 64 in 2-propanol. 10 ml of 2-propanol is added. The mixture that is obtained is stirred for 5 minutes. The mixture is fed into the adhesive solution (Gelva 7881) that is introduced. The following table indicates the adhesive dry mass that is contained in the introduced volume of the adhesive solution. Then, it is stirred for another 0.5 hour. After polarization-microscopic checking to ensure the absence of crystals, the mixture that is obtained is coated by means of a 300 μm doctor blade on a liner that consists of fluoropolymer-coated polyester (Scotchpak^(R) 1022 Release Liner). It is dried for 20 minutes at 70° C. and then laminated with a backing that consists of a co-laminate of PVC-PVDS with polyester (Saran-Hytrel^(R) backing). Round patches with a surface area of 10 cm^2 are punched from the three-layer laminate that is obtained and welded into a sealed bag that is made of aluminum compound foil.
A matrix-TDS, in which the active ingredient is present in dissolved form, can be produced according to Example 1 with gestodene only up to about 1% (m/m). Moreover, it results in recrystallization phenomena of the gestodene. The skin flow cannot increase decisively.

[3] = formulations for transdermal systems; cited from earlier work

- transdermal in-vitro skin flow ([1]; 1 h, diffusion cell 1): 0 ng/cm^2/h
- transdermal in-vitro skin flow ([1]; 1 h, diffusion cell 2): 0 ng/cm^2/h
- transdermal in-vitro skin flow ([1]; 1 h, diffusion cell 3): 0 ng/cm^2/h
- transdermal in-vitro skin flow ([1]; 1 h, diffusion cell 4): 0 ng/cm^2/h
- transdermal in-vitro skin flow, MW (mean value) ([1]; 1 h): 0 ng/cm^2/h
- transdermal in-vitro skin flow ([1]; 3 h, diffusion cell 1): 1 ng/cm^2/h
- transdermal in-vitro skin flow ([1]; 3 h, diffusion cell 2): 4 ng/cm^2/h
- transdermal in-vitro skin flow ([1]; 3 h, diffusion cell 3): 2 ng/cm^2/h
- transdermal in-vitro skin flow ([1]; 3 h, diffusion cell 4): 5 ng/cm^2/h
- transdermal in-vitro skin flow, MW (mean value) ([1]; 3 h): 3 ng/cm^2/h
- transdermal in-vitro skin flow ([1]; 5 h, diffusion cell 1): 5 ng/cm^2/h
- transdermal in-vitro skin flow ([1]; 5 h, diffusion cell 2): 31 ng/cm^2/h
- transdermal in-vitro skin flow ([1]; 5 h, diffusion cell 3): 14 ng/cm^2/h
- transdermal in-vitro skin flow ([1]; 5 h, diffusion cell 4): 18 ng/cm^2/h
- transdermal in-vitro skin flow, MW (mean value) ([1]; 5 h): 17 ng/cm^2/h
- transdermal in-vitro skin flow ([1]; 10 h, diffusion cell 1): 39 ng/cm^2/h
- transdermal in-vitro skin flow ([1]; 10 h, diffusion cell 2): 72 ng/cm^2/h
- transdermal in-vitro skin flow ([1]; 10 h, diffusion cell 3): 80 ng/cm^2/h
- transdermal in-vitro skin flow ([1]; 10 h, diffusion cell 4): 58 ng/cm^2/h
- transdermal in-vitro skin flow, MW (mean value) ([1]; 10 h): 62 ng/cm^2/h
- transdermal in-vitro skin flow ([1]; 18 h, diffusion cell 1): 77 ng/cm^2/h
- transdermal in-vitro skin flow ([1]; 18 h, diffusion cell 2): 46 ng/cm^2/h
- transdermal in-vitro skin flow ([1]; 18 h, diffusion cell 3): 110 ng/cm^2/h
- transdermal in-vitro skin flow ([1]; 18 h, diffusion cell 4): 36 ng/cm^2/h
- transdermal in-vitro skin flow, MW (mean value) ([1]; 18 h): 67 ng/cm^2/h
- transdermal in-vitro skin flow ([1]; 26 h, diffusion cell 1): 120 ng/cm^2/h
- transdermal in-vitro skin flow ([1]; 26 h, diffusion cell 2): 45 ng/cm^2/h
- transdermal in-vitro skin flow ([1]; 26 h, diffusion cell 3): 111 ng/cm^2/h
- transdermal in-vitro skin flow ([1]; 26 h, diffusion cell 4): 33 ng/cm^2/h
- transdermal in-vitro skin flow, MW (mean value) ([1]; 26 h): 77 ng/cm^2/h
- transdermal in-vitro skin flow ([1]; 34 h, diffusion cell 1): 50 ng/cm^2/h
- transdermal in-vitro skin flow ([1]; 34 h, diffusion cell 2): 39 ng/cm^2/h
- transdermal in-vitro skin flow ([1]; 34 h, diffusion cell 3): 83 ng/cm^2/h
- transdermal in-vitro skin flow ([1]; 34 h, diffusion cell 4): 31 ng/cm^2/h
- transdermal in-vitro skin flow, MW (mean value) ([1]; 34 h): 51 ng/cm^2/h
- transdermal in-vitro skin flow ([1]; 42 h, diffusion cell 1): 47 ng/cm^2/h
- transdermal in-vitro skin flow ([1]; 42 h, diffusion cell 2): 33 ng/cm^2/h
- transdermal in-vitro skin flow ([1]; 42 h, diffusion cell 3): 74 ng/cm^2/h
- transdermal in-vitro skin flow ([1]; 42 h, diffusion cell 4): 25 ng/cm^2/h
- transdermal in-vitro skin flow, MW (mean value) ([1]; 42 h): 45 ng/cm^2/h
- transdermal in-vitro skin flow ([1]; 50 h, diffusion cell 1): 37 ng/cm^2/h
- transdermal in-vitro skin flow ([1]; 50 h, diffusion cell 2): 27 ng/cm^2/h
- transdermal in-vitro skin flow ([1]; 50 h, diffusion cell 3): 44 ng/cm^2/h
- transdermal in-vitro skin flow ([1]; 50 h, diffusion cell 4): 22 ng/cm^2/h
- transdermal in-vitro skin flow, MW (mean value) ([1]; 50 h): 32 ng/cm^2/h
- content up to which active ingredient is present in dissolved form in matrix-TDS [2]: about 1 % (m/m)
Compound: C#C[C@]1(O)C=C[C@H]2[C@@H]3CCC4=CC(=O)CC[C@@H]4[C@H]3CC[C@@]21CC [gestodene]
- solubility in the matrices used [3]: about 1%

- skin flows for 1%-matrix-TDS, hydroxytrienedione versus gestodene ([1]; 1%-matrix-TDS): comparable
- content up to which active ingredient is present in dissolved form in matrix-TDS [2]: about 20 % (m/m)
- solubility in transdermal systems ([2]; matrix-transdermal systems based on polyacrylate adhesive): about 20 % by weight
Compound: C[C@H](O)C(=O)[C@]12C=C[C@@]3(CC1)C1CCC4=CC(=O)CCC4=C1CC[C@]23C (stereo partly drawn) [hydroxytrienedione, (21S)-21-hydroxy-21-methyl-14,17-ethano-19-norpregna-4,9,15-triene-3,20-dione]
